The values that follow are results of earlier work, collected in US20250241301A1, “COMPOSITIONS AND METHODS FOR INHIBITING PATHOGEN GROWTH ON PLANTS AND IMPROVING CROP SAFETY” (priority 2024, published 2025).

This data set relates to potatoes. Conditions: T2H applied alone; cited from earlier work.

On to `CCC/C=C/C=O` [T2H, trans-2-hexenal], for which the “skin pitting/lesion damage to potatoes” value was “skin pitting/lesion damage”.
